According to patent publication US12194080B2, “Methods for identification, assessment, prevention, and treatment of metabolic disorders using PM20D1 and N-lipidated amino acids” (Dana-Farber Cancer Institute, Inc., priority 2015, dated 2025):

Tests used:
U2OS cells = assay: Cellular oxygen consumption rate (uncoupled respiration), U2OS cells; type: cell-based, human; settings: 50 μM, after oligomycin 1 μM
Description: C2C12, U2O5, and 293A cells were cultured in DMEM with 10% FBS and pen/strep. Primary inguinal (iWAT) and brown (BAT) adipocytes were obtained as follows. The stromal-vascular fraction of inguinal (iWAT) pad from 4-12 week old male mice was dissected, minced, and digested for 45 min. at 37° C. in PBS containing 10 mM CaCl2, 2.4 U/ml dispase II (Roche), and 1.5 U/ml collagenase D (Roche). The stromal-vascular fraction of brown fat (BAT) pads from newborn (P1-P14) pups was dissected, minced, and digested for 45 min at 37° C. in PBS containing 1.3 mM CaCl2, 120 mM NaCl, 5 mM KCl, 5 mM glucose, 100 mM HEPES, 4% BSA, and 1.5 mg/ml collagenase B (Roche). Digested tissue was diluted with adipocyte culture media (DMEM/F-12, GlutaMAX™ supplement, Life Technologies, with 10% FBS and pen/strep) and centrifuged (600×g for 10 min.). The pellet was resuspended in 10 ml adipocyte culture media, strained through a 40 μm filter, and plated. Differentiation was induced by application of an adipogenic cocktail containing 5 μg/ml insulin (Sigma), 5 μM dexamethasone (Sigma), 250 μM isobutylmethylxanthine (Sigma), and 1 μM rosiglitazone (Cayman) for 2 days. Two days after induction, cells were maintained in adipocyte culture media containing 5 μg/ml insulin and 1 μM rosiglitazone.
Cellular oxygen consumption rates were determined using an XF24 Extracellular Flux Analyzer (Seahorse Biosciences). Oligomycin was purchased from EMD Millipore, and FCCP and rotenone were purchased from Sigma. C2C12 or U2OS cells were seeded at 30,000 or 50,000 cells/well, respectively in an XF24 cell culture microplate (V7-PS, Seahorse Bioscience) and analyzed the following day. Primary iWAT or BAT adipocytes were seeded at 15,000 cells/well, differentiation was induced the following day as described, and the cells were analyzed on day 5. On the day of analysis, the cells were washed once with Seahorse respiration buffer (8.3 g/1 DMEM, 1.8 g/l NaCl, 1 mM pyruvate, 20 mM glucose, pen/strep), placed in 0.5 ml Seahorse respiration buffer, and incubated in a CO2-free incubator for 1 hr. Port injection solutions were prepared as follows (final concentrations in assay in parentheses): 10 μM oligomycin (1 μM final), […] amino acid (50 μM final), 2 μM FCCP (0.2 μM final), and 30 μM rotenone (3 μM final). The Seahorse program was run as follows: basal measurement, 3 cycles; inject port A (oligomycin), 3 cycles; inject port B (compounds), 8 cycles; inject port C (FCCP), 3 cycles; inject port D (rotenone), 3 cycles. Each cycle consisted of mix 4 min, wait 0 min, and measure 2 min. For data expressed as a percentage of oligomycin-treated basal, the respiration at cycle 6 was normalized to 100%, and the maximum respiration at any time point between cycles 7 and 15 inclusive was used.

[1] = test system: primary inguinal fat cells, primary BAT cells, C2C12 cells, and U2OS cells; assay: Uncoupled respiration cellular assays (variety of cell types); type: cell-based; settings: N-acyl amino acids at 10-100 uM
[2] = test system: Diet induced obese (DIO) mice; assay: Indirect calorimetry (CLAMS) of high fat diet/DIO mice treated with N-acyl amino acids; type: in vivo, mouse
Description: Animal experiments were performed according to procedures approved by the Beth Israel Deaconess Medical Center IACUC. Mice were maintained in 12 h light-dark cycles at 22° C. and fed a standard irradiated rodent chow diet. All experiments on wild-type mice were performed with male C57BL/6 mice purchased from Jackson Laboratories, except for the AAV experiments, which were performed with male C57BL/6 mice from Charles River. UCP1-KO (stock #017476) and 16-20 week DIO mice (stock #380050) were obtained from Jackson Laboratories. For AAV injection experiments, mice were gently warmed using a 250 W clear infrared heat lamp, immobilized, and injected via tail vein with 10^10 virus/mouse (diluted in saline) in a total volume of 100 μl/mouse. Where indicated, mice were placed on high-fat diet (60% fat, Research Diets). For cold exposure experiments, mice were group housed and placed at 4° C. for the indicated times. For the preparation of C18:1-Phe for in vivo injections, compounds were dissolved in 18:1:1 v/v/v saline:Kolliphor® EL (Sigma Aldrich):DMSO and sonicated until homogeneous. Mice were administered compounds at 5 μl/g body weight at the indicated doses. For all injection experiments, mice were mock injected with saline daily for 3 days prior to the start of the experiments. For glucose tolerance tests (GTTs), mice received their final dose of compound the day prior to the assay and were then fasted overnight. Glucose was administered at 1.5 g/kg.
Energy expenditure, O2 consumption, CO2 production, respiratory exchange ratio, total locomotor activity, and food intake measurements were made with a 16-cage Columbus Instruments Oxymax Comprehensive Lab Animal Monitoring System (CLAMS) at ambient room temperature (21-23° C.). Mice were acclimated for one day in metabolic cages prior to data collection. Whole-body composition was assessed with an EchoMRI™ 3-in-1 on conscious mice.

[3] = daily i.p.: C18:1-Leu 25, C18:1-Phe 30, C20:4-Gly 15 mg/kg/day

Q: What does the source list for `CCCCCCCC/C=C\CCCCCCCC(=O)N[C@@H](Cc1ccccc1)C(=O)O` [C18:1-Phe, Oleoyl-L-phenylalanine]?
A: uncoupling activity (uncoupled respiration) (U2OS cells): possessed uncoupling activity; uncoupled respiration in cells [1]: increased uncoupled respiration; movement ([2]; 16-week high fat diet mice, 10 mg/kg daily, days 5 and 6): similar; VO2 [2, 3]: significantly augmented; movement [2, 3]: no effects
